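These data come from cells grown in 96-well plates and exposed to compound for 48 hours at five concentrations. GI50 marks 50% less growth. TGI: concentration producing complete growth inhibition.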
What was measured:
Assay in all cases: inhibition of tumour cell growth, NCI panel, 48 h
SK-MEL-28 melanoma = tested on: SK-MEL-28 melanoma
OVCAR-4 ovarian = tested on: OVCAR-4 ovarian
CAKI-1 renal = tested on: CAKI-1 renal
M14 melanoma = tested on: M14 melanoma
KM12 colon = tested on: KM12 colon
HCC-2998 colon = tested on: HCC-2998 colon
MDA-MB-435 = tested on: MDA-MB-435
HT29 colon = tested on: HT29 colon
TK-10 renal = tested on: TK-10 renal
A498 renal = tested on: A498 renal
SF-539 CNS = tested on: SF-539 CNS
HOP-62 NSCLC = tested on: HOP-62 NSCLC
SNB-75 CNS = tested on: SNB-75 CNS
NCI-H522 lung = tested on: NCI-H522 lung
SK-OV-3 ovarian = tested on: SK-OV-3 ovarian
SW-620 colon = tested on: SW-620 colon
SN12C renal = tested on: SN12C renal
SNB-19 CNS = tested on: SNB-19 CNS
U251 CNS = tested on: U251 CNS
786-0 renal = tested on: 786-0 renal
ACHN renal = tested on: ACHN renal
SK-MEL-5 melanoma = tested on: SK-MEL-5 melanoma
OVCAR-8 ovarian = tested on: OVCAR-8 ovarian
UACC-62 melanoma = tested on: UACC-62 melanoma
SK-MEL-2 melanoma = tested on: SK-MEL-2 melanoma
A549 NSCLC = tested on: A549 NSCLC
EKVX NSCLC = tested on: EKVX NSCLC
OVCAR-5 ovarian = tested on: OVCAR-5 ovarian
MCF7 breast = tested on: MCF7 breast
MALME-3M melanoma = tested on: MALME-3M melanoma
HOP-92 NSCLC = tested on: HOP-92 NSCLC
HCT-15 colon = tested on: HCT-15 colon
HL-60(TB) leukemia = tested on: HL-60(TB) leukemia
RXF 393 renal = tested on: RXF 393 renal
NCI-H226 lung = tested on: NCI-H226 lung
OVCAR-3 ovarian = tested on: OVCAR-3 ovarian
SF-295 CNS = tested on: SF-295 CNS
NCI-H460 lung = tested on: NCI-H460 lung
K-562 leukemia = tested on: K-562 leukemia
PC-3 prostate = tested on: PC-3 prostate
RPMI-8226 leukemia = tested on: RPMI-8226 leukemia
NCI/ADR-RES ovarian = tested on: NCI/ADR-RES ovarian
COLO 205 colon = tested on: COLO 205 colon
DU-145 prostate = tested on: DU-145 prostate
HCT-116 colon = tested on: HCT-116 colon
MOLT-4 leukemia = tested on: MOLT-4 leukemia
BT-549 breast = tested on: BT-549 breast
CCRF-CEM leukemia = tested on: CCRF-CEM leukemia
HS 578T breast = tested on: HS 578T breast
SR leukemia = tested on: SR leukemia
UO-31 renal = tested on: UO-31 renal
UACC-257 melanoma = tested on: UACC-257 melanoma
SF-268 CNS = tested on: SF-268 CNS
MDA-MB-231 breast = tested on: MDA-MB-231 breast
LOX IMVI melanoma = tested on: LOX IMVI melanoma
T-47D breast = tested on: T-47D breast
NCI-H23 lung = tested on: NCI-H23 lung
IGROV1 ovarian = tested on: IGROV1 ovarian

O=C1NN(C(=O)c2ccccc2)C(c2ccc(Cl)c(Cl)c2)=C/C1=C\c1ccccc1[N+](=O)[O-]
GI50 (SK-MEL-28 melanoma): 2720 nM
TGI (SK-MEL-28 melanoma): > 6750 nM
GI50 (OVCAR-4 ovarian): 2260 nM
TGI (OVCAR-4 ovarian): > 6750 nM
GI50 (CAKI-1 renal): 2270 nM
TGI (CAKI-1 renal): > 6750 nM
GI50 (M14 melanoma): 1900 nM
TGI (M14 melanoma): > 6750 nM
GI50 (KM12 colon): 2340 nM
TGI (KM12 colon): > 6750 nM
GI50 (HCC-2998 colon): 1810 nM
TGI (HCC-2998 colon): 5480 nM
GI50 (MDA-MB-435): > 6750 nM
TGI (MDA-MB-435): > 6750 nM
GI50 (HT29 colon): 2300 nM
TGI (HT29 colon): > 6750 nM
GI50 (TK-10 renal): 4260 nM
TGI (TK-10 renal): > 6750 nM
GI50 (A498 renal): 2210 nM
TGI (A498 renal): 6210 nM
GI50 (SF-539 CNS): 2470 nM
TGI (SF-539 CNS): > 6750 nM
GI50 (HOP-62 NSCLC): 3440 nM
TGI (HOP-62 NSCLC): > 6750 nM
GI50 (SNB-75 CNS): 1270 nM
TGI (SNB-75 CNS): > 6750 nM
GI50 (NCI-H522 lung): 1240 nM
TGI (NCI-H522 lung): 3770 nM
GI50 (SK-OV-3 ovarian): 4000 nM
TGI (SK-OV-3 ovarian): > 6750 nM
GI50 (SW-620 colon): 2270 nM
TGI (SW-620 colon): > 6750 nM
GI50 (SN12C renal): 2400 nM
TGI (SN12C renal): > 6750 nM
GI50 (SNB-19 CNS): 339 nM
TGI (SNB-19 CNS): > 6750 nM
GI50 (U251 CNS): 897 nM
TGI (U251 CNS): > 6750 nM
GI50 (786-0 renal): 2200 nM
TGI (786-0 renal): > 6750 nM
GI50 (ACHN renal): 3090 nM
TGI (ACHN renal): > 6750 nM
GI50 (SK-MEL-5 melanoma): 1170 nM
TGI (SK-MEL-5 melanoma): 2190 nM
GI50 (OVCAR-8 ovarian): 2630 nM
TGI (OVCAR-8 ovarian): > 6750 nM
GI50 (UACC-62 melanoma): 1440 nM
TGI (UACC-62 melanoma): > 6750 nM
GI50 (SK-MEL-2 melanoma): 3110 nM
TGI (SK-MEL-2 melanoma): > 6750 nM
GI50 (A549 NSCLC): 2110 nM
TGI (A549 NSCLC): > 6750 nM
GI50 (EKVX NSCLC): 2810 nM
TGI (EKVX NSCLC): > 6750 nM
GI50 (OVCAR-5 ovarian): 1960 nM
TGI (OVCAR-5 ovarian): > 6750 nM
GI50 (MCF7 breast): 1820 nM
TGI (MCF7 breast): > 6750 nM
GI50 (MALME-3M melanoma): 4530 nM
TGI (MALME-3M melanoma): > 6750 nM
GI50 (HOP-92 NSCLC): 1430 nM
TGI (HOP-92 NSCLC): > 6750 nM
GI50 (HCT-15 colon): 923 nM
TGI (HCT-15 colon): 2990 nM
GI50 (HL-60(TB) leukemia): 2010 nM
TGI (HL-60(TB) leukemia): > 6750 nM
GI50 (RXF 393 renal): 1670 nM
TGI (RXF 393 renal): 5350 nM
GI50 (NCI-H226 lung): 1440 nM
TGI (NCI-H226 lung): > 6750 nM
GI50 (OVCAR-3 ovarian): 2400 nM
TGI (OVCAR-3 ovarian): > 6750 nM
GI50 (SF-295 CNS): 1440 nM
TGI (SF-295 CNS): 4160 nM
GI50 (NCI-H460 lung): 1780 nM
TGI (NCI-H460 lung): 5200 nM
GI50 (K-562 leukemia): 1900 nM
TGI (K-562 leukemia): > 6750 nM
GI50 (PC-3 prostate): 1520 nM
TGI (PC-3 prostate): > 6750 nM
GI50 (RPMI-8226 leukemia): 1770 nM
TGI (RPMI-8226 leukemia): > 6750 nM
GI50 (NCI/ADR-RES ovarian): 2290 nM
TGI (NCI/ADR-RES ovarian): > 6750 nM
GI50 (COLO 205 colon): 1520 nM
TGI (COLO 205 colon): 3490 nM
GI50 (DU-145 prostate): 2780 nM
TGI (DU-145 prostate): > 6750 nM
GI50 (HCT-116 colon): 2030 nM
TGI (HCT-116 colon): > 6750 nM
GI50 (MOLT-4 leukemia): 2040 nM
TGI (MOLT-4 leukemia): > 6750 nM
GI50 (BT-549 breast): 1180 nM
TGI (BT-549 breast): 5400 nM
GI50 (CCRF-CEM leukemia): 1910 nM
TGI (CCRF-CEM leukemia): > 6750 nM
GI50 (HS 578T breast): 2460 nM
TGI (HS 578T breast): > 6750 nM
GI50 (SR leukemia): 2070 nM
TGI (SR leukemia): > 6750 nM
GI50 (UO-31 renal): 735 nM
TGI (UO-31 renal): 6700 nM
GI50 (UACC-257 melanoma): 5230 nM
TGI (UACC-257 melanoma): > 6750 nM
GI50 (SF-268 CNS): 3970 nM
TGI (SF-268 CNS): > 6750 nM
GI50 (MDA-MB-231 breast): > 6750 nM
TGI (MDA-MB-231 breast): > 6750 nM
GI50 (LOX IMVI melanoma): 1140 nM
TGI (LOX IMVI melanoma): 3490 nM
GI50 (T-47D breast): 2250 nM
TGI (T-47D breast): > 6750 nM
GI50 (NCI-H23 lung): 1040 nM
TGI (NCI-H23 lung): 6500 nM
GI50 (IGROV1 ovarian): 1590 nM
TGI (IGROV1 ovarian): > 6750 nM

Source: PubChem BioAssay (NCI)
